According to the supplement of paper PMC11061612:

Assays:
Assay in all cases: combination Emax (second highest fraction inhibited in the dose matrix, 72 h); higher = more inhibition; extreme values may be limits of the assay
[1] = system: COR-L279 (Small Cell Lung Carcinoma)
Procedure, shortened: (§1)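 Cell lines grown in DMEM/F12 or RPMI with 10% FBS were plated in 1536-well plates and held 24 hours at 37°C, 5% CO2 before 72 hours of exposure to two-drug dose matrices, with DMSO typically at 0.2%. CellTiter-Glo 2.0 luminescence gave viability, which was converted to inhibition. Vehicle wells were set to 0 and blank wells to 1. Combination Emax is the second-highest inhibition in the matrix, and Bliss excess is the observed combination effect minus the expected EA + EB − EA·EB, where EA and EB are the single-agent effects.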

[2] = system: CW-2 (Colorectal Carcinoma)
Procedure, shortened: as §1

[3] = system: DAN-G (Pancreatic Carcinoma)
Procedure, shortened: as §1

[4] = system: DMS-114 (Small Cell Lung Carcinoma)
Procedure, shortened: as §1

G-361 (Melanoma) = system: G-361 (Melanoma)
Procedure, shortened: as §1

[5] = system: KMS-12-BM (Plasma Cell Myeloma)
Procedure, shortened: as §1

M059J (Glioblastoma) = system: M059J (Glioblastoma)
Procedure, shortened: as §1

[6] = system: MN-60 (B-Lymphoblastic Leukemia)
Procedure, shortened: as §1

[7] = system: MOG-G-CCM (Low Grade Glioma)
Procedure, shortened: as §1

[8] = system: MOLM-13 (Acute Myeloid Leukemia)
Procedure, shortened: as §1

[9] = system: NCCIT (Other Solid Carcinomas)
Procedure, shortened: as §1

NCI-H2731 (Mesothelioma) = system: NCI-H2731 (Mesothelioma)
Procedure, shortened: as §1

[10] = system: NCI-H3122 (Lung Adenocarcinoma)
Procedure, shortened: as §1

[11] = system: NCI-H526 (Small Cell Lung Carcinoma)
Procedure, shortened: as §1

[12] = system: NCI-H661 (Non-Small Cell Lung Carcinoma)
Procedure, shortened: as §1

[13] = system: NCI-H929 (Plasma Cell Myeloma)
Procedure, shortened: as §1

[14] = system: PC-3 (Prostate Carcinoma)
Procedure, shortened: as §1

[15] = system: SK-GT-2 (Gastric Carcinoma)
Procedure, shortened: as §1

[16] = system: ST486 (Burkitt's Lymphoma)
Procedure, shortened: as §1

[17] = system: SU-DHL-5 (B-Cell Non-Hodgkin's Lymphoma)
Procedure, shortened: as §1

SMILES | combination Emax [1] | combination Emax [2] | combination Emax [3] | combination Emax [4] | combination Emax (G-361 (Melanoma)) | combination Emax [5] | combination Emax (M059J (Glioblastoma)) | combination Emax [6] | combination Emax [7] | combination Emax [8] | combination Emax [9] | combination Emax (NCI-H2731 (Mesothelioma)) | combination Emax [10] | combination Emax [11] | combination Emax [12] | combination Emax [13] | combination Emax [14] | combination Emax [15] | combination Emax [16] | combination Emax [17]
CCN(CCO)CCCOc1ccc2c(Nc3cc(CC(=O)Nc4cccc(F)c4)[nH]n3)ncnc2c1 [AZD2811] + C[C@@H]1COCCN1C2=NC(=NC(=C2)C3(CC3)[S@](=N)(=O)C)C4=C5C=CNC5=NC=C4 [AZD6738] (first compound max 1 µM, 7x7, partner max 10 µM) | 0.832 | 0.524 | 0.648 | 0.435 | 0.441 | 0.941 | 0.646 | 0.477 | 0.492 | 1 | 0.561 | 0.308 | 0.621 | 0.634 | 0.441 | 0.641 | 0.431 | 0.289 | 0.913 | 1
CCN(CCO)CCCOc1ccc2c(Nc3cc(CC(=O)Nc4cccc(F)c4)[nH]n3)ncnc2c1 [AZD2811] + O=C(c1cc(Cc2n[nH]c(=O)c3ccccc23)ccc1F)N1CCN(C(=O)C2CC2)CC1 [Olaparib] (first compound max 1 µM, 7x7, partner max 10 µM) | 0.945 | 0.162 | 0.218 | 0.177 | 0.34 | 0.34 | 0.413 | 0.301 | 0.285 | 1 | 0.226 | 0.226 | 0.271 | 0.642 | 0.155 | 0.292 | 0.179 | 0.203 | 0.856 | 1
CN(CCO)CC[C@H](CSc1ccccc1)Nc1ccc(S(=O)(=O)NC(=O)c2ccc(N3CCC([C@@H](O)c4ccccc4-c4ccc(Cl)cc4)CC3)cc2)cc1S(=O)(=O)C(F)(F)F [AZD4320] + C1CN(CCC1(C(=O)N[C@@H](CCO)C2=CC=C(C=C2)Cl)N)C3=NC=NC4=C3C=CN4 [Capivasertib] (first compound max 1 µM, 7x7, partner max 3 µM) | 0.983 | 0.158 | 0.507 | 0.229 | 0.234 | 1 | 0.486 | 0.137 | 0.528 | 1 | 0.378 | 0.197 | 0.285 | 0.929 | 0.0615 | 0.969 | 0.231 | 0.403 | 0.881 | 0.956
CN(CCO)CC[C@H](CSc1ccccc1)Nc1ccc(S(=O)(=O)NC(=O)c2ccc(N3CCC([C@@H](O)c4ccccc4-c4ccc(Cl)cc4)CC3)cc2)cc1S(=O)(=O)C(F)(F)F [AZD4320] + C=CCn1c(=O)c2cnc(Nc3ccc(N4CCN(C)CC4)cc3)nc2n1-c1cccc(C(C)(C)O)n1 [AZD1775] (first compound max 1 µM, partner max 1 µM) | 1 | 0.324 | 0.904 | 0.373 | 0.665 | 1 | 0.783 | 0.292 | 0.733 | 1 | 0.878 | 0.328 | 0.845 | 0.972 | 0.613 | 0.402 | 0.204 | 0.983 | 1 | 1
CN(CCO)CC[C@H](CSc1ccccc1)Nc1ccc(S(=O)(=O)NC(=O)c2ccc(N3CCC([C@@H](O)c4ccccc4-c4ccc(Cl)cc4)CC3)cc2)cc1S(=O)(=O)C(F)(F)F [AZD4320] + CCN(CCO)CCCOc1ccc2c(Nc3cc(CC(=O)Nc4cccc(F)c4)[nH]n3)ncnc2c1 [AZD2811] (first compound max 1 µM, 7x7, partner max 1 µM) | 1 | 0.12 | 0.355 | 0.247 | 0.41 | 1 | 0.69 | 0.238 | 0.773 | 1 | 0.181 | 0.492 | 0.269 | 0.961 | 0.0831 | 0.227 | 0.366 | 0.554 | 0.979 | 0.755
